From the supplement of paper PMC10627819

Key:
Experiment in all cases: fitness (endpoint OD595 vs no drug) (fraction); higher = more growth
[1] = system: S. pneumoniae D39V
Outline: (§1)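 Growth medium was TSB, LB Lennox or CY, and plates were kept at 37 °C. Inoculation was at OD595 0.01 in 384-well plates, at 30 µl per well or 55 µl for S. pneumoniae. OD595 was monitored every 30 min for 14 h and background-subtracted using the first reading. Fitness is the optical density on entering stationary phase divided by the robust mean of no-drug controls, with values capped at 1.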

[2] = system: S. aureus Newman
Outline: as §1

[3] = system: B. subtilis 168
Outline: as §1
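Note: OD595 on entry to stationary phase over no-drug wells; at most 1.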

O=C(O)[C@H]1/C(=C/CO)O[C@@H]2CC(=O)N21 [Clavulanic acid] + Cc1onc(-c2ccccc2)c1C(=O)N[C@@H]1C(=O)N2[C@@H]1SC(C)(C)[C@@H]2C(=O)O [Oxacillin]
Conditions | fitness
[1], first compound 0.5 µg/mL, partner 0.005 µg/mL | 0.994
[1], first compound 0.5 µg/mL, partner 0.01 µg/mL | 0.953
[1], first compound 0.5 µg/mL, partner 0.02 µg/mL | 0.943
[1], first compound 0.5 µg/mL, partner 0.04 µg/mL | 0.401
[1], first compound 1 µg/mL, partner 0.005 µg/mL | 0.952
[1], first compound 1 µg/mL, partner 0.01 µg/mL | 0.888
[1], first compound 1 µg/mL, partner 0.02 µg/mL | 0.837
[1], first compound 1 µg/mL, partner 0.04 µg/mL | 0.228
[1], first compound 2 µg/mL, partner 0.005 µg/mL | 0.846
[1], first compound 2 µg/mL, partner 0.01 µg/mL | 0.749
[1], first compound 2 µg/mL, partner 0.04 µg/mL | 0.0623
[3], first compound 1.5 µg/mL, partner 0.002 µg/mL | 0.917
[3], first compound 1.5 µg/mL, partner 0.004 µg/mL | 0.956
[3], first compound 1.5 µg/mL, partner 0.008 µg/mL | 0.962
[3], first compound 3 µg/mL, partner 0.002 µg/mL | 0.901
[3], first compound 3 µg/mL, partner 0.004 µg/mL | 0.899
[3], first compound 3 µg/mL, partner 0.008 µg/mL | 0.866
[3], first compound 6 µg/mL, partner 0.002 µg/mL | 0.827
[3], first compound 6 µg/mL, partner 0.004 µg/mL | 0.788
[3], first compound 6 µg/mL, partner 0.008 µg/mL | 0.762

fitness, one replicate
Conditions | partner 0.0078 µg/mL | partner 0.0155 µg/mL | partner 0.0156 µg/mL | partner 0.031 µg/mL | partner 0.0312 µg/mL | partner 0.0625 µg/mL | partner 0.075 µg/mL | partner 0.15 µg/mL | partner 0.3 µg/mL
[2], first compound 0.03125 µg/mL | – | – | 0.861 | – | 0.801 | 0.628 | – | – | –
[2], first compound 0.0625 µg/mL | – | – | 0.785 | – | 0.784 | 0.564 | – | – | –
[2], first compound 0.125 µg/mL | – | – | 0.749 | – | 0.697 | 0.584 | – | – | –
[3], first compound 1.5 µg/mL | 0.929 | 0.903 | – | 0.926 | – | – | 0.188 | 0.058 | 0.0448
[3], first compound 3 µg/mL | 0.958 | 0.937 | – | 0.973 | – | – | 0.0579 | 0.0634 | 0.0505
[3], first compound 6 µg/mL | 0.89 | 0.861 | – | 0.806 | – | – | 0.061 | 0.058 | 0.0518

O=C(O)[C@H]1/C(=C/CO)O[C@@H]2CC(=O)N21 [Clavulanic acid] + O=C(O[C@@H]1Cc2c(O)cc(O)cc2O[C@@H]1c1cc(O)c(O)c(O)c1)c1cc(O)c(O)c(O)c1 [EGCG]
fitness
Conditions | partner 6.25 µg/mL | partner 12.5 µg/mL | partner 25 µg/mL | partner 50 µg/mL
[1], first compound 0.5 µg/mL | – | 0.958 | 0.96 | 0.939
[1], first compound 1 µg/mL | – | 0.889 | 0.931 | 0.93
[1], first compound 2 µg/mL | – | 0.817 | 0.829 | 0.816
[3], first compound 1.5 µg/mL | 0.884 | – | – | –
[3], first compound 3 µg/mL | 0.835 | – | – | –
[3], first compound 6 µg/mL | 0.715 | – | 0.272 | –

fitness, [2], one replicate
Conditions | first compound 0.03125 µg/mL | first compound 0.0625 µg/mL | first compound 0.125 µg/mL
partner 12.5 µg/mL | 0.846 | 0.892 | 0.824
partner 25 µg/mL | 0.821 | 0.874 | 0.812
partner 50 µg/mL | 0.75 | 0.733 | 0.73

CNC(C)C1CCC(N)C(OC2C(N)CC(N)C(OC3OCC(C)(O)C(NC)C3O)C2O)O1 (configuration not stated) [Gentamicin] + CC1=C(C(=O)O)N2C(=O)[C@@H](NC(=O)[C@H](N)c3ccccc3)[C@H]2SC1 [Cephalexin]
fitness, one replicate, main component drawn
Conditions | partner 0.125 µg/mL | partner 0.25 µg/mL | partner 0.5 µg/mL | partner 1 µg/mL
[1], first compound 2 µg/mL | 0.962 | 0.96 | 0.947 | –
[1], first compound 4 µg/mL | 0.993 | 0.955 | ≥ 1 | –
[1], first compound 8 µg/mL | 0.93 | 0.965 | 0.956 | –
[2], first compound 0.375 µg/mL | – | ≥ 1 | ≥ 1 | ≥ 1
[2], first compound 0.75 µg/mL | – | ≥ 1 | ≥ 1 | ≥ 1
[2], first compound 1.5 µg/mL | – | 0.986 | 0.877 | 0.963
[3], first compound 0.0625 µg/mL | – | – | – | 0.986
[3], first compound 0.125 µg/mL | – | – | – | 0.941
[3], first compound 0.25 µg/mL | – | – | – | 0.418

main component drawn
Conditions | fitness
[1], first compound 2 µg/mL, partner 2 µg/mL | 0.0158
[1], first compound 2 µg/mL, partner 4 µg/mL | 0.0234
[1], first compound 4 µg/mL, partner 1 µg/mL | 0.424
[1], first compound 4 µg/mL, partner 2 µg/mL | 0.0331
[1], first compound 4 µg/mL, partner 4 µg/mL | 0.026
[1], first compound 8 µg/mL, partner 1 µg/mL | 0.401
[1], first compound 8 µg/mL, partner 2 µg/mL | 0.0415
[1], first compound 8 µg/mL, partner 4 µg/mL | 0.0404
[2], first compound 0.5 µg/mL, partner 0.25 µg/mL | 0.968
[2], first compound 0.5 µg/mL, partner 0.5 µg/mL | 0.964
[2], first compound 0.5 µg/mL, partner 1 µg/mL | 0.922
[2], first compound 1 µg/mL, partner 0.25 µg/mL | ≥ 1
[2], first compound 1 µg/mL, partner 0.5 µg/mL | 0.986
[2], first compound 1 µg/mL, partner 1 µg/mL | ≥ 1
[2], first compound 2 µg/mL, partner 0.25 µg/mL | 0.993
[2], first compound 2 µg/mL, partner 0.5 µg/mL | ≥ 1
[2], first compound 2 µg/mL, partner 1 µg/mL | ≥ 1
[3], first compound 0.0625 µg/mL, partner 0.125 µg/mL | 0.852
[3], first compound 0.0625 µg/mL, partner 0.25 µg/mL | 0.938
[3], first compound 0.0625 µg/mL, partner 0.5 µg/mL | 0.882
[3], first compound 0.125 µg/mL, partner 0.125 µg/mL | 0.0869
[3], first compound 0.25 µg/mL, partner 0.125 µg/mL | 0.0552
[3], first compound 0.25 µg/mL, partner 0.25 µg/mL | 0.0555
[3], first compound 0.25 µg/mL, partner 0.5 µg/mL | 0.0535

Cc1cc(NS(=O)(=O)c2ccc(N)cc2)no1 [Sulfamethoxazol] + CN[C@@H]1[C@H](O[C@H]2[C@H](O[C@H]3[C@H](O)[C@@H](O)[C@H](N=C(N)N)[C@@H](O)[C@@H]3N=C(N)N)O[C@@H](C)[C@]2(O)C=O)O[C@@H](CO)[C@H](O)[C@H]1O [Streptomycin]
fitness
Conditions | first compound 1 µg/mL | first compound 2 µg/mL | first compound 4 µg/mL
[1], partner 2 µg/mL | 0.962 | 0.962 | 0.932
[1], partner 4 µg/mL | 0.932 | 0.932 | 0.944
[1], partner 8 µg/mL | 0.877 | 0.908 | 0.95
[2], partner 1 µg/mL | 0.98 | 0.939 | 0.956
[2], partner 2 µg/mL | 0.968 | 0.999 | 0.93
[3], partner 2 µg/mL | 0.903 | 0.9 | 0.888
[3], partner 4 µg/mL | – | – | 0.153
[3], partner 8 µg/mL | 0.045 | 0.0312 | 0.0185

one replicate
Conditions | fitness
[1], first compound 1 µg/mL, partner 16 µg/mL | 0.763
[1], first compound 2 µg/mL, partner 16 µg/mL | 0.78
[1], first compound 4 µg/mL, partner 16 µg/mL | 0.79
[2], first compound 2 µg/mL, partner 8 µg/mL | 0.913
[2], first compound 4 µg/mL, partner 8 µg/mL | 0.876
[2], first compound 8 µg/mL, partner 2 µg/mL | 0.973
[2], first compound 8 µg/mL, partner 4 µg/mL | 0.964
[2], first compound 8 µg/mL, partner 8 µg/mL | 0.897
[3], first compound 0.5 µg/mL, partner 2 µg/mL | ≥ 1
[3], first compound 0.5 µg/mL, partner 4 µg/mL | ≥ 1
[3], first compound 0.5 µg/mL, partner 8 µg/mL | 0.0922
